In article PMC5994430, “Mitochondrial Delivery of Phenol Substructure Triggers Mitochondrial Depolarization and Apoptosis of Cancer Cells” (Frontiers in Pharmacology, 2018):

Key:
Assay type in all cases: cell-based, Human
[1] = test system: mitofusin 1 (MFN1) and mitofusin 2 (MFN2); assay: qRT-PCR of mitofusin mRNA in A549 cells; conditions: 0.1 μM, 4 h
Protocol: Supplementary Figure 4 Effects of TPP-derivatives on mitofusin 1 and mitofusin 2 expression.
A549 and BEAS-2B cells were incubated 4 h in fresh medium (ctrl) or with 0.1 µM of 1 and 2.
Expression of mitofusin 1 (MFN1) and mitofusin 2 (MFN2) mRNA was evaluated by qRT-PCR in
triplicates. Data are means ± SD (n=3).
(1 picture or pasted object on this page, not shown here)

caspase 3 = assay: Caspase 3 activity in A549 cell lysates; conditions: 0.1 μM, 24 h
Protocol: The activity of caspase 9 and 3 was measured by incubating 20 μg cell lysates with the respective fluorogenic substrates Ac-LEHD-AMC (LEHD-AMC) or DEVD-AMC (DEVD-AMC), as reported ([Pinzón-Daza et al., 2012]). Results were expressed as nmoles AMC/mg protein.
FIGURE 7 Effects of phenol TPP-derivatives on mitochondria-dependent apoptosis. A549 and BEAS-2B cells were incubated 24 h in fresh medium (ctrl) or in medium containing 0.1 μM of 1 or 2. (A,B) The activity of caspase 9 and 3 was measured fluorimetrically, in duplicates. Data are means ± SD (n = 3). For both panels: ^∗p < 0.001 vs. A549 ctrl cells; °p < 0.001 for BEAS-2B cells vs. the corresponding condition in A549 cells. (C,D) Cell cycle distribution, measured in duplicates. Data are means ± SD (n = 3). For both panels: ^∗p < 0.001 vs. A549 ctrl cells: °p < 0.001 for BEAS-2B cells vs. the corresponding condition in A549 cells. (E) Bright field microscope analysis of cells. Magnification: 60 × objective (0.52 numerical aperture); 10 × ocular lens. Bar: 20 μM. The micrographs are representative of three experiments with similar results.

U-2OS cells = assay: Cell viability (neutral red), IC50; conditions: U-2OS osteosarcoma cells, CompuSyn

SMILES | expression of mitofusin 1 (MFN1) and mitofusin 2 (MFN2) [1] | activity of caspase 3 (caspase 3) | IC50 (U-2OS cells; Homo sapiens, U2OS) [nM] | IC50 (U-2OS cells) [nM]
CC(=O)Oc1ccc(C[P+](c2ccccc2)(c2ccccc2)c2ccccc2)cc1.[Br-] [Compound 1] | no changes | strong activation | – | –
O=C(Oc1ccc(C[P+](c2ccccc2)(c2ccccc2)c2ccccc2)cc1C(F)(F)F)c1ccccc1.[Br-] [Compound 2] | no changes | strong activation | < 1000 | 630 ± 100
